The assay has as its system parental cell line counter screen, S1P1 agonist assay readout. Briefly: signal in parental cells, counter-screen for S1P1 agonist project (AID 467).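 Note: agonist potency measured against forskolin stimulation plus an EC20 level of SEW2871.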 For orientation: A counterscreen serves to expose hits that act by an unwanted route or on another target.

Activity calls are given as the source filed them. The rule behind the calls is not given here. Bounds are passed on as bounds.

As a reminder, the EC50 is the midpoint of the concentration-response curve. With `Cc1nc(C)c(C(=O)Nc2ccc(Oc3ccccc3)cc2)o1`, the EC50 was > 30 µM (inactive). `Cc1ccccc1-c1noc(-c2ccc(O)cc2)n1`: the EC50 is 25 µM (inactive).

For `Cc1cc(C(=O)CSc2nnnn2C)c(C)n1-c1cccc(F)c1`, the EC50 is > 95.1 µM (inactive). As for `Cc1ccc(S(=O)(=O)n2nc(C)c(Br)c2C)c(C)c1C`, the EC50 was > 95.1 µM (inactive). The figure for `Cc1nc2ncnn2c(N2CCN(c3cccc(C(F)(F)F)c3)CC2)c1C` is > 30 µM (inactive). The figure for `O=C(C1CC1)N1CCc2cc(S(=O)(=O)NCC3COc4ccccc4O3)ccc21` (stereo not given) is > 30 µM (inactive); for `CCOc1ccc(-c2nc(-c3ccc(OC)cc3)no2)cc1OCC` it is > 95.1 µM (inactive); for `Cc1occc1C(=O)N1CCN(c2ccc(Cl)c(Cl)c2)CC1` it is 43.9 µM (inactive).

With `CC(=O)Nc1ccc(S(=O)(=O)N2CCN(c3cccc(C)c3C)CC2)cc1`, the EC50 was 36.5 µM (inactive).

For `Cc1ccc(-c2nc(CSCC(=O)N3CCN(c4ccccn4)CC3)c(C)o2)cc1`, the EC50 is > 30 µM (inactive). With `O=C(Nc1ccc(N2CCCCC2)c(Cl)c1)c1ncn[nH]1` the figure was > 95.1 µM (inactive). In the case of `CCCC(=O)Nc1ccc(-c2nc3cc(C)ccc3o2)cc1`, the EC50 was > 95.1 µM (inactive). Take `COc1ccccc1Oc1ccc2c(c1)C(=O)N(c1cccc(O)c1)C2=O`: the EC50 is > 30 µM (inactive). With `c1ccc(-c2ccc(-c3nc(-c4ccncc4)no3)cc2)cc1`, the EC50 was > 95.1 µM (inactive).

On to `Cc1ccc(-c2n[nH]c(=S)n2C)cc1`, for which the EC50 was > 95.1 µM (inactive). `Cc1nn(C(=O)c2cccs2)c(N)c1-c1ccccc1`: the EC50 is > 30 µM (inactive). With `CCCc1cc(C(=O)Nc2sc3c(c2C#N)CCC3)no1` the figure was > 95.1 µM (inactive).

Regarding `Cc1nn(Cc2ccc(Cl)c(Cl)c2)c(C)c1NC(=O)c1cc(C2CC2)on1`, the EC50 is 41.2 µM (inactive).

With `COc1ccc(-c2nc(-c3ccc(Br)o3)no2)cc1OC`, the EC50 was > 95.1 µM (inactive). `Cc1cc(C(=O)CSc2nnc(-c3ccco3)o2)c(C)n1-c1ccc2c(c1)OCCO2`: the EC50 is > 10 µM (inactive). In the case of `CC(=O)Oc1ccc(N2C(=O)C3C(C2=O)C2(C)C=CC3(C)O2)cc1` (stereo not given), the EC50 was 3.23 µM.

As to `COc1ccc(C(c2c(O)ccc3ccccc23)N2CCOCC2)c(OC)c1` (stereo not given), the EC50 is 1.45 µM. The figure for `O=c1[nH]nc(Sc2ncnc3sccc23)n1CCc1ccccc1` is 21.1 µM (inactive).

Consider `O=C(Nc1ccc(N2CCOCC2)c(Cl)c1)c1cccc(F)c1`, for which the EC50 was > 95.1 µM (inactive). `Cc1cc(-c2nnc(-c3ccccc3)c(-c3ccccc3)n2)c(C)o1`: the EC50 was 33.7 µM (inactive). For `COC(=O)c1ccc2c(=O)n(C3CCCCC3)c(SCC#N)nc2c1`, the EC50 was > 95.1 µM (inactive). With `COc1ccc(-c2noc(-c3ccccc3F)n2)cc1`, the EC50 was > 95.1 µM (inactive). With `CCOc1ccc(-c2nc(-c3ccncc3)no2)cc1OCC` the figure was > 95.1 µM (inactive).

Consider `Clc1ccccc1C1=Nn2c(nnc2-c2ccncc2)SC1`, for which the EC50 was 13.9 µM (inactive). On to `Cc1csc(SCC(=O)c2cc(C)n(Cc3cccs3)c2C)n1`, for which the EC50 is 38.8 µM (inactive). `Nc1nnnn1/N=C/C(Br)=C/c1ccccc1`: the EC50 was 4.08 µM.

On to `CCCc1cc(C(=O)N2CCN(C(c3ccccc3)c3ccccc3)CC2)no1`, for which the EC50 is > 95.1 µM (inactive). Consider `Cc1ccc2oc(-c3ccc(NC(=O)c4cccnc4)cc3)nc2c1`, for which the EC50 was > 95.1 µM (inactive). On to `CCOc1ccccc1OCCCCCc1c(C)n[nH]c1C`, for which the EC50 is > 30 µM (inactive). With `Cn1nc(CC(=O)Nc2ccc(N3CCN(C(=O)OC(C)(C)C)CC3)cc2)c2ccccc2c1=O` the figure was > 95.1 µM (inactive); with `CCc1c(C)sc(NC(=O)c2cc(-c3ccco3)on2)c1C#N`, > 95.1 µM (inactive); with `CCN(CC)C(=O)C1CCN(S(=O)(=O)c2ccc3oc4ccccc4c3c2)CC1`, > 95.1 µM (inactive). Regarding `N#C/C(=C/c1ccc(N2CCCCCC2)o1)c1ccc(F)cc1`, the EC50 was 4.4 µM. Take `C=CS(=O)(=O)c1ccc(Oc2ccc(S(=O)(=O)C=C)cc2)cc1`: the EC50 is 1.06 µM. As to `CNc1oc(-c2ccc(OCc3ccccc3)cc2)nc1C#N`, the EC50 was > 95.1 µM (inactive). Turning to `Cc1cc(/C=N/n2cnnc2)c(C)n1-c1ccc(OCc2ccccc2F)cc1`, the 50% effective concentration (EC50) is 7.37 µM. On to `O=C(CSc1nnc(Cn2nnc3ccccc32)o1)N(Cc1ccc(F)cc1)c1ccccc1`, for which the EC50 is 30.6 µM (inactive).

Turning to `CCOc1ccc(Cc2nc(-c3nonc3N)no2)cc1OCC`, the EC50 is > 95.1 µM (inactive). For the compound `CCCCOc1ncnc2c1[nH]c1ccc(F)cc12`, the EC50 is > 95.1 µM (inactive). As to `Cc1cc(C(=O)CSc2nnc(-c3cccnc3)n2-c2ccccc2F)c(C)n1C`, the EC50 was > 95.1 µM (inactive). In the case of `CCc1ccc2c(COC(=O)c3n[nH]c4ccccc34)cc(=O)oc2c1`, the EC50 was > 95.1 µM (inactive). The figure for `Cc1noc(C)c1S(=O)(=O)N(CC(=O)Nc1ccc2c(c1)OCO2)c1ccc(C(C)C)cc1` is > 95.1 µM (inactive); for `COc1ccc(N2CCn3c2nc2c3c(=O)n(CCCc3ccccc3)c(=O)n2C)c(OC)c1` it is > 10 µM (inactive); for `Cc1cccc(-n2ncc3c(N(C)C4CCCCC4)ncnc32)c1` it is > 95.1 µM (inactive). `CC(C)c1ccc(OCc2nc(-c3ccccn3)no2)c(Br)c1`: the EC50 was 63 µM (inactive). Regarding `CCOc1ccccc1COC(=O)c1cccc(-n2cnnn2)c1`, the EC50 was > 95.1 µM (inactive).

As to `CC(C)Cn1c(N)c(C(=O)CSc2ccc3c(c2)OCCO3)c(=O)n(C)c1=O`, the EC50 is 88.5 µM (inactive). `CCOc1ccc(C(C)=O)cc1N1C(=O)C2C3C=CC(O3)C2C1=O` (stereo not given): the EC50 is 4.31 µM. Turning to `CN=C(NC#N)SCC(=O)c1ccc(Cl)cc1Cl`, the EC50 was > 30 µM (inactive).

Take `Cc1cc(C(=O)Nc2sc(C)c(-c3ccc(F)cc3)c2C(N)=O)no1`: the EC50 was > 95.1 µM (inactive). In the case of `COC(=O)C1=CN(CCCN2CCCC2=O)C=C(C(=O)OC)C1c1ccccc1C(F)(F)F`, the EC50 is > 95.1 µM (inactive). On to `COC(=O)c1ccc(C(c2c(N)n(CC(C)C)c(=O)[nH]c2=O)N2CCN(c3ccccc3)CC2)cc1` (stereo not given), for which the EC50 was > 95.1 µM (inactive). The figure for `COc1ccc(-n2c(C)cc(C(=O)CSc3nnc(-c4cccs4)o3)c2C)cc1` is 32.3 µM (inactive). Consider `C/C(N)=C(/C#N)C(=O)CSc1nc2cc(Cl)ccc2s1`, for which the EC50 is 49.5 µM (inactive). `CCCC(=O)Nc1ccc2oc(-c3ccc(OC)c(Br)c3)nc2c1`: the EC50 was > 95.1 µM (inactive). For the compound `Oc1ccc(-c2nnc(SCC3CCCCC3)o2)cc1`, the EC50 was > 10 µM (inactive). Turning to `Cc1nn(Cc2ccc(Cl)cc2)c(C)c1NC(=O)c1cc(-c2ccco2)on1`, the EC50 was 85.2 µM (inactive). The figure for `COc1ccc(C(=O)C(CN2CCOCC2)c2ccccc2)cc1F` (stereo not given) is 8.06 µM. The figure for `CCOC(=O)c1oc2cc(O)c(CC)cc2c(=O)c1-c1ccc2c(c1)OCCO2` is > 30 µM (inactive); for `O=C1C2C3C=CC(CO)(O3)C2C(=O)N1c1ccccc1-c1ccccc1` (stereo not given) it is 2.26 µM; for `CCOc1ccc(-c2nnc(-c3cccs3)o2)cc1OCC` it is > 95.1 µM (inactive). With `Cc1nnc2ccc(Oc3ccc(-c4ccccc4)cc3)nn12` the figure was > 30 µM (inactive); with `CCC(=NCCOc1ccc(Cl)cc1)c1c(O)n(C)c(=O)n(C)c1=O`, 18.9 µM (inactive). For `CC1CC(C)(C)Nc2ccc(OC(=O)c3ccco3)cc21` (stereo not given), the EC50 was 7.66 µM. Regarding `CCn1c(SCC(=O)Nc2nc3ccc(C)cc3s2)nc2c(c1=O)SC(C)C2` (stereo not given), the EC50 was > 10 µM (inactive).

In the case of `Cc1ccc(N2C(=O)c3cccc4c(N5CCN(C)CC5)ccc(c34)C2=O)c2cccnc12`, the EC50 was > 95.1 µM (inactive).

Consider `CCOC(=O)c1cccc2c1-c1ccccc1/C2=N/O`, for which the EC50 is 12 µM (inactive).

With `CCOC(=O)Nc1ccc2c(c1)N(C(=O)CCN(C)C)c1ccccc1S2`, the EC50 was > 10 µM (inactive). With `CC(C)(CC(=O)N1CCN(c2ccc(Cl)cc2)CC1)CC1=NS(=O)(=O)c2ccccc2N1` the figure was 19.9 µM (inactive). With `Cc1[nH]nc2c1C1(C(=O)N(Cc3ccc(Cl)cc3)c3ccccc31)C(C#N)=C(N)O2` (stereo not given) the figure was > 30 µM (inactive); with `CCCCOc1ccc(S(=O)(=O)n2c(C)nc3ccccc32)cc1`, > 95.1 µM (inactive); with `Cc1ccc(C(C)C)c(OCc2ccc(-c3nnco3)cc2)c1`, > 95.1 µM (inactive).

In the case of `CCOc1ccc(-c2noc(-c3cccnc3)n2)cc1OC`, the EC50 is > 95.1 µM (inactive). On to `CC(Oc1ccccc1Br)C(=O)N1CCc2ccccc21` (stereo not given), for which the EC50 was > 95.1 µM (inactive). Take `CCOc1ccc(S(=O)(=O)N2CCN(c3ccc(C)cc3C)CC2)cc1`: the EC50 is > 95.1 µM (inactive). As for `CCNc1nc2c(c(=O)n(C)c(=O)n2C)n1Cc1ccc(Cl)cc1`, the EC50 is > 95.1 µM (inactive). `c1ccc(CN2CCN(c3ncnc4c3[nH]c3ccccc34)CC2)cc1`: the EC50 is 12.1 µM (inactive). With `c1ccc(CNc2ncnc3ccccc23)cc1` the figure was 30.1 µM (inactive); with `Cc1ccccc1-n1c(SCC(=O)c2cc(C)n(C)c2C)nnc1-c1ccncc1`, > 95.1 µM (inactive).

Take `CCc1ccc(N(CC)c2ncnc3nc[nH]c23)cc1`: the EC50 was > 95.1 µM (inactive).

As to `COc1ccc(-c2nc3cc(NC(=O)Cc4ccc(OC)c(OC)c4)ccc3o2)cc1`, the EC50 is > 10 µM (inactive). For `c1ccc(CSc2nnc(-c3c[nH]c4ccccc34)o2)cc1`, the EC50 is 41.4 µM (inactive). For the compound `COc1ccc(CCNc2ncnc3c2oc2ccccc23)cc1OC`, the EC50 is 5.31 µM. Consider `CC1=CC(C)(C)Nc2ccc(OC(=O)c3ccco3)cc21`, for which the EC50 is > 3 µM (inactive). On to `CCOc1cc(C2NCc3ccccc3-n3cccc32)ccc1O` (stereo not given), for which the EC50 is > 95.1 µM (inactive).

For the origin of these results see PubChem BioAssay AID467 (The Scripps Research Institute Molecular Screening Center, 2006).
